pEC50: −log10 of the molar value.

The subject of one assay is VEGF. Briefly: Hypoxia-inducible endogenous VEGF expression ELISA in HeLa cells. In kind it is cell-based. The note with it: Homo sapiens, HeLa, compounds 1-155, hypoxic conditions (1% O2), VEGF protein by ELISA, read-out: ELISA Activity. The procedure, abridged:
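HeLa cells held 24–48 h in hypoxia (1% O2) with a concentration series of compound; VEGF secreted into media quantified by ELISA against a standard curve. Parallel Cell Titer Glo viability under identical conditions gives CC50; EC50 from percent-inhibition curves.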
In general terms: ELISA stands for enzyme-linked immunosorbent assay.
As to `O/N=C/c1ccn(C2CCCc3c2[nH]c2ccc(Br)cc32)c1` (centres unmarked) [Compound 149, 1-(6-Bromo-2,3,4,9-tetrahydro-1H-carbazol-1-yl)-1H-pyrrole-3-carbaldehyde oxime], the pEC50 is 6.70 to 7.40. Same read-out and setting: under `c1ccc2c3c([nH]c2c1)C(n1cccc1)CCC3` (centres unmarked) [Compound 102, 1-Pyrrol-1-yl-2,3,4,9-tetrahydro-1H-carbazole] stands less than 6.00; under `Cc1ccc2[nH]c3c(c2c1)CCCC3Nc1ccccc1` (centres unmarked) [Compound 11, (6-Methyl-2,3,4,9-tetrahydro-1H-carbazol-1-yl)-phenyl-amine], greater than 8.00. The same measure, in the same setting: then `COc1ccc(NC2CCCc3c2[nH]c2ccc(C(F)(F)F)cc32)cc1` (centres unmarked) [Compound 139, (4-Methoxy-phenyl)-(6-trifluoromethyl-2,3,4,9-tetrahydro-1H-carbazol-1-yl)-amine], with 7.40 to 8.00; and `Brc1ccc2[nH]c3c(c2c1)CCCC3c1nc2ccccc2o1` (centres unmarked) [Compound 129, 1-Benzooxazol-2-yl-6-bromo-2,3,4,9-tetrahydro-1H-carbazole], with greater than 8.00; and `Clc1ccc(NC2CCCc3c2[nH]c2ccc(Cl)cc32)cc1` (centres unmarked) [Compound 135, (4-Chloro-phenyl)-(6-chloro-2,3,4,9-tetrahydro-1H-carbazol-1-yl)-amine], with 7.40 to 8.00. Regarding `Cn1cccc1C(=O)NC1CCCc2c1[nH]c1ccc(Br)cc21` (centres unmarked) [Compound 155, 1-Methyl-1H-pyrrole-2-carboxylic acid (6-bromo-2,3,4,9-tetrahydro-1H-carbazol-1-yl)-amide], the pEC50 was 7.40 to 8.00.

For `Brc1ccc2[nH]c3c(c2c1)CCCC3Nc1ccon1` (centres unmarked) [Compound 51, (6-Bromo-2,3,4,9-tetrahydro-1H-carbazol-1-yl)-isoxazol-3-yl-amine], the pEC50 is 6.70 to 7.40. In the case of `CC(C)c1ccc(NC2CCCc3c2[nH]c2ccc(Br)cc32)cc1` (centres unmarked) [Compound 8, (6-Bromo-2,3,4,9-tetrahydro-1H-carbazol-1-yl)-(4-isopropyl-phenyl)-amine], the pEC50 is greater than 8.00.

With `O=C1N(c2ccccc2)C2CCCc3c2n1c1ccc(Br)cc31` (centres unmarked) [Compound 112, 7-Bromo-2-phenyl-2a,3,4,5-tetrahydro-2H-2,9b-diaza-cyclopenta[jk]fluoren-1-one], the pEC50 was less than 6.00.

As for `COc1ccc(C(=O)NC2CCCc3c2[nH]c2ccc(Br)cc32)cc1` (centres unmarked) [Compound 130, N-(6-Bromo-2,3,4,9-tetrahydro-1H-carbazol-1-yl)-4-methoxy-benzamide], the pEC50 is 7.40 to 8.00. Consider `O/N=C1\CCCc2c1[nH]c1c(Br)cccc21` [Compound 98, 8-Bromo-2,3,4,9-tetrahydro-carbazol-1-one oxime], for which the pEC50 was less than 6.00.

Consider `COc1ccccc1NC1CCCc2c1[nH]c1ccc(Br)cc21` (centres unmarked) [Compound 45, (6-Bromo-2,3,4,9-tetrahydro-1H-carbazol-1-yl)-(2-methoxy-phenyl)-amine], for which the pEC50 was 6.70 to 7.40.

In the case of `OCCc1cccc(NC2CCCc3c2[nH]c2ccc(Br)cc32)c1` (centres unmarked) [Compound 63, 2-[3-(6-Bromo-2,3,4,9-tetrahydro-1H-carbazol-1-ylamino)-phenyl]-ethanol], the pEC50 is 6.00 to 6.70. The same measure, in the same setting: under `O=C(NC1CCCc2c1[nH]c1ccc(Br)cc21)c1ccno1` (centres unmarked) [Compound 150, isoxazole-5-carboxylic acid (6-bromo-2,3,4,9-tetrahydro-1H-carbazol-1-yl)-amide] stands 7.40 to 8.00. On the same count and under the same terms, then `O=C(NC1CCCc2c1[nH]c1ccc(Br)cc21)c1cccc(Cl)c1` (centres unmarked) [Compound 22, N-(6-Bromo-2,3,4,9-tetrahydro-1H-carbazol-1-yl)-3-chloro-benzamide], with greater than 8.00. For the compound `Brc1ccc2[nH]c3c(c2c1)CCCC3Nc1ccccc1` (centres unmarked) [Compound 2, (6-Bromo-2,3,4,9-tetrahydro-1H-carbazol-1-yl)-phenyl-amine], the pEC50 was greater than 8.00. Still for that read-out and setting: under `O=C1CCCc2c1[nH]c1ccc(Br)cc21` [Compound 50, 6-Bromo-2,3,4,9-tetrahydro-carbazol-1-one] stands 6.70 to 7.40; under `O=C(NC1CCCc2c1[nH]c1ccc(Br)cc21)c1ccccc1` (centres unmarked) [Compound 21, N-(6-Bromo-2,3,4,9-tetrahydro-1H-carbazol-1-yl)-benzamide], greater than 8.00. Take `CC(=O)n1c2c(c3cc(Br)ccc31)CCCC2` [Compound 86, 1-(6-Bromo-1,2,3,4-tetrahydro-carbazol-9-yl)-ethanone]: the pEC50 is less than 6.00. On the same count and under the same terms, under `Brc1ccc2[nH]c3c(c2c1)CCCC3NCC1CCCO1` (centres unmarked) [Compound 77, (6-Bromo-2,3,4,9-tetrahydro-1H-carbazol-1-yl)-(tetrahydro-furan-2-ylmethyl)-amine] stands less than 6.00; under `O=C1c2sccc2CN1C1CCCc2c1[nH]c1ccc(Cl)cc21` (centres unmarked) [Compound 148, 5-(6-Chloro-2,3,4,9-tetrahydro-1H-carbazol-1-yl)-4,5-dihydro-thieno[2,3-c]pyrrol-6-one], greater than 8.00. On to `O=C(Nc1ccccc1)C1CCCc2c1[nH]c1ccc(Br)cc21` (centres unmarked) [Compound 91, 6-Bromo-2,3,4,9-tetrahydro-1H-carbazole-1-carboxylic acid phenylamide], for which the pEC50 was less than 6.00. In the case of `O=C1CCCc2c1[nH]c1ccc(OC(F)(F)F)cc21` [Compound 73, 6-Trifluoromethoxy-2,3,4,9-tetrahydro-carbazol-1-one], the pEC50 is 6.00 to 6.70. Same read-out and setting: then `O=C1c2ccccc2C(=O)N1C1CCCc2c1[nH]c1ccc(Br)cc21` (centres unmarked) [Compound 41, 2-(6-Bromo-2,3,4,9-tetrahydro-1H-carbazol-1-yl)-isoindole-1,3-dione], with 6.70 to 7.40; and `Fc1ccc(NC2CCCc3c2[nH]c2ccc(Br)cc32)cc1` (centres unmarked) [Compound 24, (6-Bromo-2,3,4,9-tetrahydro-1H-carbazol-1-yl)-(4-fluoro-phenyl)-amine], with 7.40 to 8.00; and `O=C(NC1CCCc2c1[nH]c1ccc(Br)cc21)c1ccc(-c2ccc(Cl)cc2)o1` (centres unmarked) [Compound 125, 5-(4-Chloro-phenyl)-furan-2-carboxylic acid (6-bromo-2,3,4,9-tetrahydro-1H-carbazol-1-yl)-amide], with 6.70 to 7.40. Regarding `O=C(NC1CCCc2c1[nH]c1ccc(Br)cc21)c1ccc(Cl)s1` (centres unmarked) [Compound 154, 5-Chloro-thiophene-2-carboxylic acid (6-bromo-2,3,4,9-tetrahydro-1H-carbazol-1-yl)-amide], the pEC50 is greater than 8.00.

Staying with this assay, now noted: Homo sapiens, HeLa, compounds 191-239, hypoxic conditions, VEGF protein by ELISA, read-out: ELISA Activity EC50.
As to `CC(=O)N1CCN(CC(O)COc2ccc(C3CCCc4c3[nH]c3ccc(Cl)cc43)cc2)CC1` (centres unmarked) [Compound 214], the pEC50 was 6.70 to 7.40. Regarding `CC(=O)N1CCN(CCCOc2ccc(C3CCCc4c3[nH]c3ccc(Br)cc43)cc2)CC1` (centres unmarked) [Compound 204], the pEC50 was 7.40 to 8.00.

In the case of `Oc1ccc(C2CCCCc3c2[nH]c2ccc(Cl)cc32)cc1` (centres unmarked) [Compound 230], the pEC50 was greater than 8.00.

In the case of `OC(COc1ccc(C2CCCc3c2[nH]c2ccc(Br)cc32)cc1)Cn1nccn1` (centres unmarked) [Compound 227], the pEC50 is greater than 8.00. On the same count and under the same terms, under `OC(COc1ccc(C2CCCc3c2[nH]c2ccc(Cl)cc32)cc1)Cn1ccnc1` (centres unmarked) [Compound 220] stands 7.40 to 8.00; under `OC(COc1ccc(C2CCCc3c2[nH]c2ccc(Br)cc32)cc1)CN1CCSCC1` (centres unmarked) [Compound 199], greater than 8.00; under `OC(COc1ccc(C2CCCCc3c2[nH]c2ccc(Cl)cc32)cc1)CN1CCOCC1` (centres unmarked) [Compound 228], 7.40 to 8.00.

Consider `OC(COc1ccc(C2CCCc3c2[nH]c2ccc(Cl)cc32)cc1)CN1CCSCC1` (centres unmarked) [Compound 217], for which the pEC50 was 7.40 to 8.00. `CN1CCN(CC(O)COc2ccc(C3CCCc4c3[nH]c3ccc(Cl)cc43)cc2)CC1` (centres unmarked) [Compound 219]: the pEC50 is 7.40 to 8.00. With `Brc1ccc2[nH]c3c(c2c1)CCCC3c1ccc(OCCCn2ccnn2)cc1` (centres unmarked) [Compound 209], the pEC50 is greater than 8.00.

The assay is the same for the next values; noted with them: Homo sapiens, HeLa, purchased compounds 156-188, hypoxic conditions, VEGF protein by ELISA, read-out: ELISA Activity.
On to `CC(=O)N1CCn2c3c(c4cc(C)ccc42)CCCC31` (centres unmarked) [Compound 175, 1-(8-Methyl-1,2,3a,4,5,6-hexahydro-pyrazino[3,2,1-jk]carbazol-3-yl)-ethanone], for which the pEC50 was less than 6.00.

Take `C1=C(c2ccc3c(c2)c2c4n3CCN(Cc3ccccc3)C4CCC2)C2CCN1CC2` (centres unmarked) [Compound 166, 8-(1-Aza-bicyclo[2.2.2]oct-2-en-3-yl)-3-benzyl-2,3,3a,4,5,6-hexahydro-1H-pyrazino[3,2,1-jk]carbazole]: the pEC50 was less than 6.00.

Still in this assay, the particulars now being: Homo sapiens, HeLa, purchased compounds 156-188, hypoxic conditions, VEGF protein by ELISA, read-out: ELISA EC50.
For `CC(=O)N1CCn2c3c(c4cc(C)ccc42)CCCC31` (centres unmarked) [Compound 175, 1-(8-Methyl-1,2,3a,4,5,6-hexahydro-pyrazino[3,2,1-jk]carbazol-3-yl)-ethanone], the pEC50 is less than 5.00.

On to `C1=C(c2ccc3c(c2)c2c4n3CCN(Cc3ccccc3)C4CCC2)C2CCN1CC2` (centres unmarked) [Compound 166, 8-(1-Aza-bicyclo[2.2.2]oct-2-en-3-yl)-3-benzyl-2,3,3a,4,5,6-hexahydro-1H-pyrazino[3,2,1-jk]carbazole], for which the pEC50 is 5.18.

Still in this assay, the particulars now being: purchased compounds 156-188, hypoxic conditions, VEGF protein by ELISA, read-out: ELISA Activity.
Regarding “3-[(2,3,4,9-Tetrahydro- 1H-carbazol-1-ylamino)- methylene]-1,3-dihydro- indol-2-one [Compound 158]”, the pEC50 was 6.00 to 6.70.

The same assay, now with this note: purchased compounds 156-188, hypoxic conditions, VEGF protein by ELISA, read-out: ELISA EC50.
As to “3-[(2,3,4,9-Tetrahydro- 1H-carbazol-1-ylamino)- methylene]-1,3-dihydro- indol-2-one [Compound 158]”, the pEC50 was 6.57.

Source of the values: patent US9271960B2, “Tetrahydrocarbazoles as active agents for inhibiting VEGF production by translational control” (PTC Therapeutics, Inc., priority 2004, dated 2016).
